Data reported in the kinase profiling compilation of Christmann-Franck et al. (2016).

What was measured:
Settings in all cases: compound 10.0 µM
BLK (human) = BLK (human) (UniProt P51451)
BRSK2 (human) = BRSK2 (human) (UniProt Q8IWQ3)
CAMK2B (human) = CAMK2B (human) (UniProt Q13554)
CAMKK2 (human) = CAMKK2 (human) (UniProt Q96RR4)
CDK1 CCNB1 (human) = CDK1 CCNB1 (human) (UniProt P06493+P14635)
CDK2 CCNA2 (human) = CDK2 CCNA2 (human) (UniProt P24941+P20248)
CDK4 CCND3 (human) = CDK4 CCND3 (human) (UniProt P11802+P30281)
CDK4 CCND3 (human), sequence (P11802 whole entry, looked up): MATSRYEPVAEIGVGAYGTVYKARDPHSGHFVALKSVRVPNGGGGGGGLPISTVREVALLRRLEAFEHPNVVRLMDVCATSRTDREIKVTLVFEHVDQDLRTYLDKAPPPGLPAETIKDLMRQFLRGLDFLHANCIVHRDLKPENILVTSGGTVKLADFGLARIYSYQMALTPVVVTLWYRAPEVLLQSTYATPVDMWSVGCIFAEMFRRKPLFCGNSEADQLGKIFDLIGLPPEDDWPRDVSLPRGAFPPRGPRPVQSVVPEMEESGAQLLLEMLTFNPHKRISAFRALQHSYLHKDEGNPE
CDK4 CCND3 (human), sequence (P30281 whole entry, looked up): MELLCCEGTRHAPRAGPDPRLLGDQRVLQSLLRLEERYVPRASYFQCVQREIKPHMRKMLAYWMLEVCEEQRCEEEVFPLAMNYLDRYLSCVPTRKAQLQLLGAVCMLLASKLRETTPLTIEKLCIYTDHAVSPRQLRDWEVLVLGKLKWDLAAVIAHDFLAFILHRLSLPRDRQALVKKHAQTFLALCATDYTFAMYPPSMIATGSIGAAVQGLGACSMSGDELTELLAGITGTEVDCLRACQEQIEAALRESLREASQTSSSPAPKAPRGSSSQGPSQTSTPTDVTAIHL

CDK7 CCNH MNAT1 (human) = CDK7 CCNH MNAT1 (human) (UniProt P50613+P51948+P51946)
CSNK1A1 (human) = CSNK1A1 (human) (UniProt P48729)
CSNK1D (human) = CSNK1D (human) (UniProt P48730)
CSNK1D (human), sequence (P48730 whole entry, looked up): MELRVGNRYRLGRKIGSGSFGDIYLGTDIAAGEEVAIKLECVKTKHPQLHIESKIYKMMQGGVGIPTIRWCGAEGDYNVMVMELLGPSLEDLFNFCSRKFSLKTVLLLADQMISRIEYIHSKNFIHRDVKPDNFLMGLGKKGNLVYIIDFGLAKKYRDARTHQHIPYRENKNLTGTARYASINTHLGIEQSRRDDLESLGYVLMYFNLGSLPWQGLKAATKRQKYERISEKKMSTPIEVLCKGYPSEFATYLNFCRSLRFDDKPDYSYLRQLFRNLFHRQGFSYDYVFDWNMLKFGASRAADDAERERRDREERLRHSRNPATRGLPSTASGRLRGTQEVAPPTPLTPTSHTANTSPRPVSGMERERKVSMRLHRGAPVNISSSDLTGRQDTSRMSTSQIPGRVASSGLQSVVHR

DSTYK (human) = DSTYK (human) (UniProt Q6XUX3)
EPHA1 (human) = EPHA1 (human) (UniProt P21709)
EPHA2 (human) = EPHA2 (human) (UniProt P29317)
EPHA7 (human) = EPHA7 (human) (UniProt Q15375)
EPHA7 (human), sequence (Q15375 whole entry, looked up): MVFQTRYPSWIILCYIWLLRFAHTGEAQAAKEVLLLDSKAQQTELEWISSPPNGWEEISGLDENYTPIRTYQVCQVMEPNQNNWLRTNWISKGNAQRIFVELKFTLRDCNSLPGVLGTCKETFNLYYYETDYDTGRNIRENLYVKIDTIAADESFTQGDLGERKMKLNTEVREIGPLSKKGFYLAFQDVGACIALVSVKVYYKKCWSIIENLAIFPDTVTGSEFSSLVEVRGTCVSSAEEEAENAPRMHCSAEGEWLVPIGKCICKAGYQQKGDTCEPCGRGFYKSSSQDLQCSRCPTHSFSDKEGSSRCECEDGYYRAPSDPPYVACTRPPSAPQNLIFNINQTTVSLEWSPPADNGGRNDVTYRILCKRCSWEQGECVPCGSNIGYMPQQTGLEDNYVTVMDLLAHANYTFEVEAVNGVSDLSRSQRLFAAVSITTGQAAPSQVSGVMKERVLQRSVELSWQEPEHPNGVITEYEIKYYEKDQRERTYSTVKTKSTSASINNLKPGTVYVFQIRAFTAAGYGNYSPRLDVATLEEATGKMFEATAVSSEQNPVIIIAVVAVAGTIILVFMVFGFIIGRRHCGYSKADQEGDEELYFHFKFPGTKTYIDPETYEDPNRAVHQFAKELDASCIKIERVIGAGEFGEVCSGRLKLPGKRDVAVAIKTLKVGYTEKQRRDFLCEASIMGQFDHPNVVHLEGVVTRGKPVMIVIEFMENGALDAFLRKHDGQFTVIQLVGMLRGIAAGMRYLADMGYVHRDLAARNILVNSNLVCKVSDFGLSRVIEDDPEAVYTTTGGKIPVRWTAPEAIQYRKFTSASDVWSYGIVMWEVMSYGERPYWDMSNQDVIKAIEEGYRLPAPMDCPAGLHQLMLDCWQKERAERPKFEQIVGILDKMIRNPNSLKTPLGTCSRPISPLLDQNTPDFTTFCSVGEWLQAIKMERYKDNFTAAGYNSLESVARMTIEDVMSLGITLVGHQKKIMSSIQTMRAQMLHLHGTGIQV

EPHB2 (human) = EPHB2 (human) (UniProt P29323)
FER (human) = FER (human) (UniProt P16591)
FGFR2 (human) = FGFR2 (human) (UniProt P21802)
HCK (human) = HCK (human) (UniProt P08631)
HIPK4 (human) = HIPK4 (human) (UniProt Q8NE63)
KDR (human) = KDR (human) (UniProt P35968)
MAP2K6 (human) = MAP2K6 (human) (UniProt P52564)
MAP4K4 (human) = MAP4K4 (human) (UniProt O95819)
MAPK10 (human) = MAPK10 (human) (UniProt P53779)
MST1R (human) = MST1R (human) (UniProt Q04912)
NEK6 (human) = NEK6 (human) (UniProt Q9HC98)
NTRK1 (human) = NTRK1 (human) (UniProt P04629)
PDGFRA (human) = PDGFRA (human) (UniProt P16234)
PIM3 (human) = PIM3 (human) (UniProt Q86V86)
PRKCI (human) = PRKCI (human) (UniProt P41743)
PRKCZ (human) = PRKCZ (human) (UniProt Q05513)
RET (human) = RET (human) (UniProt P07949)
RPS6KA6 KD1 KD2 (human) = RPS6KA6 KD1 KD2 (human) (UniProt Q9UK32)
RPS6KA6 KD1 KD2 (human), sequence (Q9UK32 whole entry, looked up): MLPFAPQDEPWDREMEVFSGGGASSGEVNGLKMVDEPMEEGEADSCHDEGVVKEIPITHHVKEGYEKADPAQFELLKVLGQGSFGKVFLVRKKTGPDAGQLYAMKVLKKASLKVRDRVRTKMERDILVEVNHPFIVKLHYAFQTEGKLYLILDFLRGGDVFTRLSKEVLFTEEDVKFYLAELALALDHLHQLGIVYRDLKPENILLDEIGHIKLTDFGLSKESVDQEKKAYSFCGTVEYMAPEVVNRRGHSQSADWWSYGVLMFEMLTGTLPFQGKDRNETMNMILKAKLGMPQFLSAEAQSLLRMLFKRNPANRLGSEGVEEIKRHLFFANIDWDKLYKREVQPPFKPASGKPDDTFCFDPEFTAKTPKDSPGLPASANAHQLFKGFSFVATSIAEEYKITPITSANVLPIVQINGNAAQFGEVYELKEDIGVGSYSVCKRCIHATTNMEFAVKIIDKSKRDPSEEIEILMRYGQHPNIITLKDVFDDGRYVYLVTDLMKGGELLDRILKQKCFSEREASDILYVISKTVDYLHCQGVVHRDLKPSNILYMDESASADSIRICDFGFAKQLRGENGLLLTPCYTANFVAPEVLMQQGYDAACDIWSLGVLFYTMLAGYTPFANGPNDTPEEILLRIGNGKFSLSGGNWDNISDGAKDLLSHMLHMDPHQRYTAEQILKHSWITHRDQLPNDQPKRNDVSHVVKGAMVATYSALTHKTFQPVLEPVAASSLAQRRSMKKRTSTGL

SGK3 (human) = SGK3 (human) (UniProt Q96BR1)
SLK (human) = SLK (human) (UniProt Q9H2G2)
SRC (human) = SRC (human) (UniProt P12931)
SRC (human), sequence (P12931 whole entry, looked up): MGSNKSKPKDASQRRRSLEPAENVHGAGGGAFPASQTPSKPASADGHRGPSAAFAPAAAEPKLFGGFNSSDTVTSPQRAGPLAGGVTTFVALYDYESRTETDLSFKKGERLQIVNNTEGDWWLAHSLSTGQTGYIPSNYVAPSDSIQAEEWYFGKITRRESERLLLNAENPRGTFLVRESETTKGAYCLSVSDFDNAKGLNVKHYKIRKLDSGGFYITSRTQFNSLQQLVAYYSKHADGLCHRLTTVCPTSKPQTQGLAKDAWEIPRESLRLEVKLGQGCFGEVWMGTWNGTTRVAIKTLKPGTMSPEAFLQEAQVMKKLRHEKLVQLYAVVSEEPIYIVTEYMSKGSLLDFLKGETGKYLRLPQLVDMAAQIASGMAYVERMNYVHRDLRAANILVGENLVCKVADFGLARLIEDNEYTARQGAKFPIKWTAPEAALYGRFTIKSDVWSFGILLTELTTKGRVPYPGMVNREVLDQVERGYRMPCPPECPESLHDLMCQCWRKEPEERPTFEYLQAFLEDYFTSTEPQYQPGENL

TAOK1 (human) = TAOK1 (human) (UniProt Q7L7X3)
TAOK1 (human), sequence (Q7L7X3 whole entry, looked up): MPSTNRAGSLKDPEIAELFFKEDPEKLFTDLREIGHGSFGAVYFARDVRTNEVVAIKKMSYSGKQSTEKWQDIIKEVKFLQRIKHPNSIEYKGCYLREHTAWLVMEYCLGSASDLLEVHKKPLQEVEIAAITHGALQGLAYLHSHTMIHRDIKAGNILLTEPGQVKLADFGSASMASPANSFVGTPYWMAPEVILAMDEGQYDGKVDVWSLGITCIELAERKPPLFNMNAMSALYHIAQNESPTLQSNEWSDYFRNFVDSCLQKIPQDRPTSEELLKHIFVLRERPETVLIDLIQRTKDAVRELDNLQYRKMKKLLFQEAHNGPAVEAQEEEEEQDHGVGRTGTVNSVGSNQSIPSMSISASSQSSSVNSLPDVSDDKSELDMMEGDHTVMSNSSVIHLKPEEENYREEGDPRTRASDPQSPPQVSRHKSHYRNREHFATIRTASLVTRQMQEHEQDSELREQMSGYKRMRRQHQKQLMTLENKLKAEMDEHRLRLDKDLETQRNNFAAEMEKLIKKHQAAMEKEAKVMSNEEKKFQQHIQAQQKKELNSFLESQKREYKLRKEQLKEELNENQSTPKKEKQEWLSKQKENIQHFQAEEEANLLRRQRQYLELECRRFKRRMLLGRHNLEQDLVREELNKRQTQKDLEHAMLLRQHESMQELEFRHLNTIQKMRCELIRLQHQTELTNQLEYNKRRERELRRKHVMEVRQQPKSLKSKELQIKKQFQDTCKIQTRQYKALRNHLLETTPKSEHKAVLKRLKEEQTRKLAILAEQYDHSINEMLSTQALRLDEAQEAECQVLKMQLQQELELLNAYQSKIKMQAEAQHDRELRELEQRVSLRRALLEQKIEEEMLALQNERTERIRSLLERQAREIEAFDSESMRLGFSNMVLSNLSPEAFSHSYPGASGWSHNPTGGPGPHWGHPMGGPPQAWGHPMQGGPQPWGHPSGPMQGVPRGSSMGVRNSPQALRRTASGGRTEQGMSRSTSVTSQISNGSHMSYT

TAOK3 (human) = TAOK3 (human) (UniProt Q9H2K8)
TGFBR1 (human) = TGFBR1 (human) (UniProt P36897)
TGFBR2 (human) = TGFBR2 (human) (UniProt P37173)
TXK (human) = TXK (human) (UniProt P42681)
TYK2 JH1 JH2 (human) = TYK2 JH1 JH2 (human) (UniProt P29597)
TYRO3 (human) = TYRO3 (human) (UniProt Q06418)
VRK1 (human) = VRK1 (human) (UniProt Q99986)
WNK3 (human) = WNK3 (human) (UniProt Q9BYP7)

BLK (human), sequence (P51451 whole entry, looked up): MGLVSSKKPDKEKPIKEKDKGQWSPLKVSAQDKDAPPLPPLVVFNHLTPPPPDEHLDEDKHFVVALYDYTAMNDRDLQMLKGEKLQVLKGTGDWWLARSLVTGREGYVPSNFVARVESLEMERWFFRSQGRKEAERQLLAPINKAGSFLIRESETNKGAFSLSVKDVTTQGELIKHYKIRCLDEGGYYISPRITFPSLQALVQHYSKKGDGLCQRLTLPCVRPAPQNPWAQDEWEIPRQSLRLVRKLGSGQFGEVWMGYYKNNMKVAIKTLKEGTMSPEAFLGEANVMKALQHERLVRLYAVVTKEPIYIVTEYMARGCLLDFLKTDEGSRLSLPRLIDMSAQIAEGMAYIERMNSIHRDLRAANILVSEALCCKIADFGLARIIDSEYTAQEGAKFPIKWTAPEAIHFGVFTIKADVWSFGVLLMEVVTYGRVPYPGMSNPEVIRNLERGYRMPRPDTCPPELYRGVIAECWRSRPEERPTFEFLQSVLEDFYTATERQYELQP

residual activity (BLK (human)): 81.5%
residual activity (BRSK2 (human)): 103%
residual activity (CAMK2B (human)): 95.5%
residual activity (CAMKK2 (human)): 98%
residual activity (CDK1 CCNB1 (human)): 99%
residual activity (CDK2 CCNA2 (human)): 97%
residual activity (CDK4 CCND3 (human)): 104%
residual activity (CDK7 CCNH MNAT1 (human)): 102%
residual activity (CSNK1A1 (human)): 97%
residual activity (CSNK1D (human)): 100%
residual activity (DSTYK (human)): 97.5%
residual activity (EPHA1 (human)): 104%
residual activity (EPHA2 (human)): 106%
residual activity (EPHA7 (human)): 91.5%
residual activity (EPHB2 (human)): 95.5%
residual activity (FER (human)): 85.5%
residual activity (FGFR2 (human)): 98.5%
residual activity (HCK (human)): 101%
residual activity (HIPK4 (human)): 88%
residual activity (KDR (human)): 104%
residual activity (MAP2K6 (human)): 94.5%
residual activity (MAP4K4 (human)): 102%
residual activity (MAPK10 (human)): 105%
residual activity (MST1R (human)): 97%
residual activity (NEK6 (human)): 95.5%
residual activity (NTRK1 (human)): 106%
residual activity (PDGFRA (human)): 99.5%
residual activity (PIM3 (human)): 93.5%
residual activity (PRKCI (human)): 99.5%
residual activity (PRKCZ (human)): 99.5%
residual activity (RET (human)): 98.5%
residual activity (RPS6KA6 KD1 KD2 (human)): 92%
residual activity (SGK3 (human)): 105%
residual activity (SLK (human)): 108%
residual activity (SRC (human)): 83.5%
residual activity (TAOK1 (human)): 91.5%
residual activity (TAOK3 (human)): 101%
residual activity (TGFBR1 (human)): 100%
residual activity (TGFBR2 (human)): 100%
residual activity (TXK (human)): 85.5%
residual activity (TYK2 JH1 JH2 (human)): 91.5%
residual activity (TYRO3 (human)): 94.5%
residual activity (VRK1 (human)): 101%
residual activity (WNK3 (human)): 95%
Compound: CC[C@H](C)n1cc(C)c2c(C(=O)NCc3c(C)cc(C)[nH]c3=O)cc(-c3ccc(N4CCNCC4)nc3)cc21
